Experimental data reported in patent publication US9771369B2, “Compounds and methods for kinase modulation, and indications therefor” (Plexxikon Inc., priority 2014, dated 2017).

Tests used:
c-kit mutant D816V = c-kit mutant D816V (Homo sapiens (Human), UniProt P10721, D816V/DEL694-753); assay: c-Kit mutant D816V biochemical assay (AlphaScreen kinase activity)
How it was run: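 Recombinant His-tagged c-Kit D816V kinase domain (residues 551-934, insert 694-753 deleted, E. coli-expressed) phosphorylating 30 nM biotin-(E4Y)10 with 10 μM ATP, HEPES pH 7.2, Mg/Mn, 5% DMSO; 30 min, room temperature. Phosphorylation detected by AlphaScreen (streptavidin donor/PY30 acceptor beads); IC50 from 8-point 1:3 series.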

[1] = test system: BaF3-FL KIT D816V or BaF3-FL KIT V560G/D816V cell line; assay: Cell-based assays of c-Kit mutant kinase activity (cell proliferation, ATPlite); conditions: at least one of the c-kit cell assays of Example 7
How it was run: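 BaF3 cells dependent on transfected full-length human KIT D816V or V560G/D816V (pCI-Neo, CMV promoter) were seeded at 1×10^4 cells/well and exposed to 8-point 1:3 dilutions from 10 μM top (0.2% DMSO) for three days at 37° C. ATPlite luminescence gave cell number; IC50 from concentration-response.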

Sequence of c-kit mutant D816V (P10721 other isoform, or with tags, fused parts or gaps D816V/del 694-753): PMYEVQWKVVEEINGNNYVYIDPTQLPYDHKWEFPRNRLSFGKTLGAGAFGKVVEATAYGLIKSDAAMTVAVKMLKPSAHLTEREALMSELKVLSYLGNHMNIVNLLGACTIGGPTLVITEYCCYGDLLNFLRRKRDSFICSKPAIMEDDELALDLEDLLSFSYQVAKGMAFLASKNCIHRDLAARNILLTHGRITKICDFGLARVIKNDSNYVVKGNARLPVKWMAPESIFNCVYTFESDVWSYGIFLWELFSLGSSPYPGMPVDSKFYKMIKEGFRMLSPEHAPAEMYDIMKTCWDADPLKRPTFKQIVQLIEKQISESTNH

SMILES | IC50 (c-kit mutant D816V) [µM] | IC50 [1] [nM]
COc1ccc(-c2[nH]c(C3(C)CCN(c4ncnc5[nH]c(-c6cnn(C(F)F)c6)cc45)CC3)nc2C)cc1 [P-3153, 6-[1-(difluoromethyl)pyrazol-4-yl]-4-[4-[5-(4-methoxyphenyl)-4-methyl-1H-imidazol-2-yl]-4-methyl-1-piperidyl]-7H-pyrrolo[2,3-d]pyrimidine] | 0.0001 to 1 | < 10000
COc1ccc(-c2[nH]c(C3(C)CCN(c4ncnc5[nH]c(-c6cnn(C(F)F)c6)cc45)CC3)nc2C)cc1C [P-3154, 6-[1-(difluoromethyl)pyrazol-4-yl]-4-[4-[5-(4-methoxy-3-methyl-phenyl)-4-methyl-1H-imidazol-2-yl]-4-methyl-1-piperidyl]-7H-pyrrolo[2,3-d]pyrimidine] | 0.0001 to 1 | < 10000
Cc1nc(C2(C)CCN(c3ncnc4[nH]c(-c5cnn(C(F)F)c5)cc34)CC2)[nH]c1-c1ccc2c(c1)OCO2 [P-3155, 4-[4-[5-(1,3-benzodioxol-5-yl)-4-methyl-1H-imidazol-2-yl]-4-methyl-1-piperidyl]-6-[1-(difluoromethyl)pyrazol-4-yl]-7H-pyrrolo[2,3-d]pyrimidine] | 0.0001 to 1 | < 10000
COc1ccc(-c2[nH]c(C3(C)CCN(c4ncnc5[nH]c(-c6ccc(OC)nc6)cc45)CC3)nc2C)cc1 [P-3156, 4-[4-[5-(4-methoxyphenyl)-4-methyl-1H-imidazol-2-yl]-4-methyl-1-piperidyl]-6-(6-methoxy-3-pyridyl)-7H-pyrrolo[2,3-d]pyrimidine] | 0.0001 to 1 | < 10000
COc1ccc(-c2cc3c(N4CCC(C)(c5nc(C)c(-c6ccc(OC)c(C)c6)[nH]5)CC4)ncnc3[nH]2)cn1 [P-3157, 4-[4-[5-(4-methoxy-3-methyl-phenyl)-4-methyl-1H-imidazol-2-yl]-4-methyl-1-piperidyl]-6-(6-methoxy-3-pyridyl)-7H-pyrrolo[2,3-d]pyrimidine] | 0.0001 to 1 | < 10000
COc1ccc(-c2cc3c(N4CCC(C)(c5nc(C)c(-c6ccc7c(c6)OCO7)[nH]5)CC4)ncnc3[nH]2)cn1 [P-3158, 4-[4-[5-(1,3-benzodioxol-5-yl)-4-methyl-1H-imidazol-2-yl]-4-methyl-1-piperidyl]-6-(6-methoxy-3-pyridyl)-7H-pyrrolo[2,3-d]pyrimidine] | 0.0001 to 1 | < 10000
Cc1nc(C2(C)CCN(c3ncnc4[nH]c(-c5ccc(C#N)cc5)cc34)CC2)[nH]c1-c1ccc2c(c1)OCO2 [P-3159, 4-[4-[4-[5-(1,3-benzodioxol-5-yl)-4-methyl-1H-imidazol-2-yl]-4-methyl-1-piperidyl]-7H-pyrrolo[2,3-d]pyrimidin-6-yl]benzonitrile] | 0.0001 to 1 | < 10000
CCOc1ccc(-c2[nH]c(C3(C)CCN(c4ncnc5[nH]c(-c6ccc(C#N)cc6)cc45)CC3)nc2C)cc1C [P-3160, 4-[4-[4-[5-(4-ethoxy-3-methyl-phenyl)-4-methyl-1H-imidazol-2-yl]-4-methyl-1-piperidyl]-7H-pyrrolo[2,3-d]pyrimidin-6-yl]benzonitrile] | 0.0001 to 1 | < 10000
CCOc1ccc(-c2[nH]c(C3(C)CCN(c4ncnc5[nH]c(-c6ccc(C#N)cc6)cc45)CC3)nc2C)cc1 [P-3161, 4-[4-[4-[5-(4-ethoxyphenyl)-4-methyl-1H-imidazol-2-yl]-4-methyl-1-piperidyl]-7H-pyrrolo[2,3-d]pyrimidin-6-yl]benzonitrile] | 0.0001 to 1 | < 10000
Cc1nc(C2CCN(c3ncnc4[nH]c(-c5ccc(C#N)cc5)cc34)CC2)[nH]c1-c1ccc(C(F)F)cc1 [P-3162, 4-[4-[4-[5-[4-(difluoromethyl)phenyl]-4-methyl-1H-imidazol-2-yl]-1-piperidyl]-7H-pyrrolo[2,3-d]pyrimidin-6-yl]benzonitrile] | 0.0001 to 1 | < 10000
COc1ccc(-c2[nH]c(C3(C)CCN(c4ncnc5[nH]c(-c6ccc(C#N)cc6)cc45)CC3)nc2C)cc1F [P-3163, 4-[4-[4-[5-(3-fluoro-4-methoxy-phenyl)-4-methyl-1H-imidazol-2-yl]-4-methyl-1-piperidyl]-7H-pyrrolo[2,3-d]pyrimidin-6-yl]benzonitrile] | 0.0001 to 1 | < 10000
Cc1nc(C2(C)CCN(c3ncnc4[nH]c(-c5ccc(C#N)cc5)cc34)CC2)[nH]c1-c1ccc(C(F)F)cc1 [P-3164, 4-[4-[4-[5-[4-(difluoromethyl)phenyl]-4-methyl-1H-imidazol-2-yl]-4-methyl-1-piperidyl]-7H-pyrrolo[2,3-d]pyrimidin-6-yl]benzonitrile] | 0.0001 to 1 | < 10000
Cc1cc2c(N3CCC(C)(c4nc(C)c(-c5ccc(C(F)(F)F)cc5)[nH]4)CC3)ncnc2[nH]1 [P-3165, 6-methyl-4-[4-methyl-4-[4-methyl-5-[4-(trifluoromethyl)phenyl]-1H-imidazol-2-yl]-1-piperidyl]-7H-pyrrolo[2,3-d]pyrimidine] | 0.0001 to 1 | < 10000
COc1cccc(-c2[nH]c(C3(C)CCN(c4ncnc5[nH]c(C)cc45)CC3)nc2C)c1 [P-3166, 4-[4-[5-(3-methoxyphenyl)-4-methyl-1H-imidazol-2-yl]-4-methyl-1-piperidyl]-6-methyl-7H-pyrrolo[2,3-d]pyrimidine] | 0.0001 to 1 | < 10000
COc1cccc(-c2[nH]c(C3(C)CCN(c4ncnc5[nH]c(-c6ccc(C#N)cc6)cc45)CC3)nc2C)c1 [P-3167, 4-[4-[4-[5-(3-methoxyphenyl)-4-methyl-1H-imidazol-2-yl]-4-methyl-1-piperidyl]-7H-pyrrolo[2,3-d]pyrimidin-6-yl]benzonitrile] | 0.0001 to 1 | < 10000
COc1cccc(-c2[nH]c(C3(C)CCN(c4ncnc5[nH]c(-c6cnn(C(F)F)c6)cc45)CC3)nc2C)c1 [P-3168, 6-[1-(difluoromethyl)pyrazol-4-yl]-4-[4-[5-(3-methoxyphenyl)-4-methyl-1H-imidazol-2-yl]-4-methyl-1-piperidyl]-7H-pyrrolo[2,3-d]pyrimidine] | 0.0001 to 1 | < 10000
COc1cccc(-c2[nH]c(C3(C)CCN(c4ncnc5[nH]c(-c6ccc(OC)nc6)cc45)CC3)nc2C)c1 [P-3169, 4-[4-[5-(3-methoxyphenyl)-4-methyl-1H-imidazol-2-yl]-4-methyl-1-piperidyl]-6-(6-methoxy-3-pyridyl)-7H-pyrrolo[2,3-d]pyrimidine] | 0.0001 to 1 | < 10000
CCOc1ccc(-c2[nH]c(C3(C)CCN(c4ncnc5[nH]c(-c6cnn(C(F)F)c6)cc45)CC3)nc2C)cc1 [P-3170, 6-[1-(difluoromethyl)pyrazol-4-yl]-4-[4-[5-(4-ethoxyphenyl)-4-methyl-1H-imidazol-2-yl]-4-methyl-1-piperidyl]-7H-pyrrolo[2,3-d]pyrimidine] | 0.0001 to 1 | < 10000
Fc1ccc(-c2cc3c(N4CCC(c5nnc(-c6cccc(OC(F)F)c6)[nH]5)CC4)ncnc3[nH]2)cc1 [P-3204, 4-[4-[5-[3-(difluoromethoxy)phenyl]-4H-1,2,4-triazol-3-yl]-1-piperidyl]-6-(4-fluorophenyl)-7H-pyrrolo[2,3-d]pyrimidine] | 0.0001 to 1 | < 10000
COc1cc(-c2cc3c(N4CCC(c5nnc(-c6ccc(F)cc6)[nH]5)CC4)ncnc3[nH]2)ccn1 [P-3205, 4-[4-[5-(4-fluorophenyl)-4H-1,2,4-triazol-3-yl]-1-piperidyl]-6-(2-methoxy-4-pyridyl)-7H-pyrrolo[2,3-d]pyrimidine] | 1 to 10 | < 10000
